Values after ≈ are worked out from the molar mass of the structure shown.
Legend:
Format in all cases: functional
Pseudomonas aeruginosa [1] = test: Antibacterial activity against Pseudomonas aeruginosa by broth microdilution technique
Escherichia coli = test: Antibacterial activity against Escherichia coli by broth microdilution technique
Staphylococcus aureus [2] = test: Antibacterial activity against multidrug resistant Staphylococcus aureus clinical isolate by broth microdilution technique
Enterococcus faecalis = test: Antibacterial activity against Enterococcus faecalis ATCC 29212 by broth microdilution technique
Staphylococcus aureus [3] = test: Antibacterial activity against Staphylococcus aureus ATCC 25923 by broth microdilution technique
Pseudomonas aeruginosa [4] = test: Antibacterial activity against multidrug resistant Pseudomonas aeruginosa clinical isolate by broth microdilution technique
[5] = tested on: Staphylococcus epidermidis; test: Antibacterial activity against Staphylococcus epidermidis ATCC 12228 by broth microdilution technique
[6] = tested on: Staphylococcus epidermidis; test: Selectivity ratio of MIC of ciprofloxacin to MIC of compound for Staphylococcus epidermidis ATCC 12228

C=CCO/N=C/c1cn(C2CCN(c3nc4c(cc3F)c(=O)c(C(=O)O)cn4C3CC3)CC2)nn1
MIC (Pseudomonas aeruginosa [1]): 32 mg/L (≈ 66.5 µM)
MIC (Escherichia coli): 4 mg/L (≈ 8.31 µM)
MIC (Staphylococcus aureus [2]): 8 mg/L (≈ 16.6 µM)
MIC (Enterococcus faecalis): 8 mg/L (≈ 16.6 µM)
MIC (Staphylococcus aureus [3]): 0.5 mg/L (≈ 1.04 µM)
MIC (Pseudomonas aeruginosa [4]): 32 mg/L (≈ 66.5 µM)
MIC [5]: 2 mg/L (≈ 4.15 µM)

O=C(O)c1cn(C2CC2)c2cc(N3CCNCC3)c(F)cc2c1=O [CIPROFLOXACIN]
MIC (Enterococcus faecalis): 1 mg/L (≈ 3.02 µM)
MIC [5]: 0.5 mg/L (≈ 1.51 µM)

O=C(O)c1cn(C2CC2)c2nc(N3CCC(n4cc(CO)nn4)CC3)c(F)cc2c1=O
MIC (Pseudomonas aeruginosa [1]): 32 mg/L (≈ 74.7 µM)
MIC (Escherichia coli): 0.5 mg/L (≈ 1.17 µM)
MIC (Staphylococcus aureus [2]): > 32 mg/L
MIC (Enterococcus faecalis): 2 mg/L (≈ 4.67 µM)
MIC (Staphylococcus aureus [3]): 0.125 mg/L (≈ 0.292 µM)
MIC (Pseudomonas aeruginosa [4]): 32 mg/L (≈ 74.7 µM)
MIC [5]: 0.5 mg/L (≈ 1.17 µM)

O=C(O)c1cn(C2CC2)c2nc(N3CCC(n4cc(/C=N/O)nn4)CC3)c(F)cc2c1=O
MIC (Pseudomonas aeruginosa [1]): 32 mg/L (≈ 72.5 µM)
MIC (Escherichia coli): 2 mg/L (≈ 4.53 µM)
MIC (Staphylococcus aureus [2]): > 32 mg/L
MIC (Enterococcus faecalis): 4 mg/L (≈ 9.06 µM)
MIC (Staphylococcus aureus [3]): 1 mg/L (≈ 2.27 µM)
MIC (Pseudomonas aeruginosa [4]): 32 mg/L (≈ 72.5 µM)
MIC [5]: 1 mg/L (≈ 2.27 µM)

NC(=O)c1cn(C2CCN(c3nc4c(cc3F)c(=O)c(C(=O)O)cn4C3CC3)CC2)nn1
MIC (Pseudomonas aeruginosa [1]): 32 mg/L (≈ 72.5 µM)
MIC (Escherichia coli): 4 mg/L (≈ 9.06 µM)
MIC (Staphylococcus aureus [2]): > 32 mg/L
MIC (Enterococcus faecalis): 4 mg/L (≈ 9.06 µM)
MIC (Staphylococcus aureus [3]): 1 mg/L (≈ 2.27 µM)
MIC (Pseudomonas aeruginosa [4]): 32 mg/L (≈ 72.5 µM)
MIC [5]: 2 mg/L (≈ 4.53 µM)

CO/N=C/c1cn(C2CCN(c3nc4c(cc3F)c(=O)c(C(=O)O)cn4C3CC3)CC2)nn1
MIC (Pseudomonas aeruginosa [1]): 32 mg/L (≈ 70.3 µM)
MIC (Escherichia coli): 2 mg/L (≈ 4.39 µM)
MIC (Staphylococcus aureus [2]): > 32 mg/L
MIC (Enterococcus faecalis): 4 mg/L (≈ 8.78 µM)
MIC (Staphylococcus aureus [3]): 0.25 mg/L (≈ 0.549 µM)
MIC (Pseudomonas aeruginosa [4]): 32 mg/L (≈ 70.3 µM)
MIC [5]: 0.5 mg/L (≈ 1.1 µM)

C#CCO/N=C/c1cn(C2CCN(c3nc4c(cc3F)c(=O)c(C(=O)O)cn4C3CC3)CC2)nn1
MIC (Pseudomonas aeruginosa [1]): 32 mg/L (≈ 66.7 µM)
MIC (Escherichia coli): 4 mg/L (≈ 8.34 µM)
MIC (Staphylococcus aureus [2]): 32 mg/L (≈ 66.7 µM)
MIC (Enterococcus faecalis): 8 mg/L (≈ 16.7 µM)
MIC (Staphylococcus aureus [3]): 0.5 mg/L (≈ 1.04 µM)
MIC (Pseudomonas aeruginosa [4]): 32 mg/L (≈ 66.7 µM)
MIC [5]: 1 mg/L (≈ 2.09 µM)

O=Cc1cn(C2CCN(c3nc4c(cc3F)c(=O)c(C(=O)O)cn4C3CC3)CC2)nn1
MIC (Pseudomonas aeruginosa [1]): 16 mg/L (≈ 37.5 µM)
MIC (Escherichia coli): 0.25 mg/L (≈ 0.586 µM)
MIC (Staphylococcus aureus [2]): > 32 mg/L
MIC (Enterococcus faecalis): 2 mg/L (≈ 4.69 µM)
MIC (Staphylococcus aureus [3]): 0.125 mg/L (≈ 0.293 µM)
MIC (Pseudomonas aeruginosa [4]): 32 mg/L (≈ 75 µM)
Ratio [6]: 16
MIC [5]: 0.031 mg/L (≈ 0.0727 µM)

NCc1cn(C2CCN(c3nc4c(cc3F)c(=O)c(C(=O)O)cn4C3CC3)CC2)nn1
MIC (Pseudomonas aeruginosa [1]): 32 mg/L (≈ 74.9 µM)
MIC (Escherichia coli): 16 mg/L (≈ 37.4 µM)
MIC (Staphylococcus aureus [2]): > 32 mg/L
MIC (Enterococcus faecalis): > 32 mg/L
MIC (Staphylococcus aureus [3]): 16 mg/L (≈ 37.4 µM)
MIC (Pseudomonas aeruginosa [4]): 32 mg/L (≈ 74.9 µM)
MIC [5]: 32 mg/L (≈ 74.9 µM)

CN[C@H](CC(C)C)C(=O)N[C@H]1C(=O)N[C@@H](CC(N)=O)C(=O)N[C@H]2C(=O)N[C@H]3C(=O)N[C@H](C(=O)N[C@H](C(=O)O)c4cc(O)cc(O)c4-c4cc3ccc4O)[C@H](O)c3ccc(c(Cl)c3)Oc3cc2cc(c3O[C@@H]2O[C@H](CO)[C@@H](O)[C@H](O)[C@H]2O[C@H]2C[C@](C)(N)[C@H](O)[C@H](C)O2)Oc2ccc(cc2Cl)[C@H]1O [VANCOMYCIN]
MIC (Enterococcus faecalis): 0.5 mg/L (≈ 0.345 µM)

CC(O)c1cn(C2CCN(c3nc4c(cc3F)c(=O)c(C(=O)O)cn4C3CC3)CC2)nn1 (stereo unspecified)
MIC (Pseudomonas aeruginosa [1]): 32 mg/L (≈ 72.3 µM)
MIC (Escherichia coli): 1 mg/L (≈ 2.26 µM)
MIC (Staphylococcus aureus [2]): > 32 mg/L
MIC (Enterococcus faecalis): 8 mg/L (≈ 18.1 µM)
MIC (Staphylococcus aureus [3]): 2 mg/L (≈ 4.52 µM)
MIC (Pseudomonas aeruginosa [4]): 32 mg/L (≈ 72.3 µM)
MIC [5]: 2 mg/L (≈ 4.52 µM)

COC(=O)c1cn(C2CCN(c3nc4c(cc3F)c(=O)c(C(=O)O)cn4C3CC3)CC2)nn1
MIC (Pseudomonas aeruginosa [1]): 32 mg/L (≈ 70.1 µM)
MIC (Escherichia coli): 1 mg/L (≈ 2.19 µM)
MIC (Staphylococcus aureus [2]): > 32 mg/L
MIC (Enterococcus faecalis): 16 mg/L (≈ 35.1 µM)
MIC (Staphylococcus aureus [3]): 1 mg/L (≈ 2.19 µM)
MIC (Pseudomonas aeruginosa [4]): 32 mg/L (≈ 70.1 µM)
MIC [5]: 1 mg/L (≈ 2.19 µM)

O=C(O)c1cn(C2CC2)c2nc(N3CCC(n4cc(-c5ccccc5)nn4)CC3)c(F)cc2c1=O
MIC (Pseudomonas aeruginosa [1]): > 32 mg/L
MIC (Escherichia coli): 32 mg/L (≈ 67.4 µM)
MIC (Staphylococcus aureus [2]): 0.5 mg/L (≈ 1.05 µM)
MIC (Enterococcus faecalis): 1 mg/L (≈ 2.11 µM)
MIC (Staphylococcus aureus [3]): 0.5 mg/L (≈ 1.05 µM)
MIC [5]: 0.5 mg/L (≈ 1.05 µM)

O=C(O)c1cn(C2CC2)c2nc(N3CCC(n4cc(/C=N/OCc5ccccc5)nn4)CC3)c(F)cc2c1=O
MIC (Pseudomonas aeruginosa [1]): 32 mg/L (≈ 60.2 µM)
MIC (Escherichia coli): 8 mg/L (≈ 15.1 µM)
MIC (Staphylococcus aureus [2]): 4 mg/L (≈ 7.53 µM)
MIC (Enterococcus faecalis): 4 mg/L (≈ 7.53 µM)
MIC (Staphylococcus aureus [3]): 1 mg/L (≈ 1.88 µM)
MIC (Pseudomonas aeruginosa [4]): 32 mg/L (≈ 60.2 µM)
MIC [5]: 1 mg/L (≈ 1.88 µM)

CCC(O)c1cn(C2CCN(c3nc4c(cc3F)c(=O)c(C(=O)O)cn4C3CC3)CC2)nn1 (stereo unspecified)
MIC (Pseudomonas aeruginosa [1]): 32 mg/L (≈ 70.1 µM)
MIC (Escherichia coli): 1 mg/L (≈ 2.19 µM)
MIC (Staphylococcus aureus [2]): > 32 mg/L
MIC (Enterococcus faecalis): 8 mg/L (≈ 17.5 µM)
MIC (Staphylococcus aureus [3]): 2 mg/L (≈ 4.38 µM)
MIC (Pseudomonas aeruginosa [4]): 32 mg/L (≈ 70.1 µM)
MIC [5]: 2 mg/L (≈ 4.38 µM)

CCO/N=C/c1cn(C2CCN(c3nc4c(cc3F)c(=O)c(C(=O)O)cn4C3CC3)CC2)nn1
MIC (Pseudomonas aeruginosa [1]): 32 mg/L (≈ 68.2 µM)
MIC (Escherichia coli): 4 mg/L (≈ 8.52 µM)
MIC (Staphylococcus aureus [2]): 32 mg/L (≈ 68.2 µM)
MIC (Enterococcus faecalis): 4 mg/L (≈ 8.52 µM)
MIC (Staphylococcus aureus [3]): 0.5 mg/L (≈ 1.07 µM)
MIC (Pseudomonas aeruginosa [4]): 32 mg/L (≈ 68.2 µM)
MIC [5]: 1 mg/L (≈ 2.13 µM)

Source: ChEMBL document CHEMBL1157887, “4-Substituted 4-(1H-1,2,3-triazol-1-yl)piperidine: novel C7 moieties of fluoroquinolones as antibacterial agents” (2010)
